From patent US12077503B2, “Substituted cyclic amides and their use as herbicides” (FMC CORPORATION, priority 2015, dated 2024)

Columns and labels:
Type in all cases: in vivo
Kochia (Kochia scoparia) [1] = assay: Test A preemergence; details: Bassia scoparia, pre-emergence, 240 h, preemergence, read-out: Kochia plant response rating; for pest or weed control at 125 g/ha: 125 g ai/ha, approx. 10 d; for pest or weed control at 500 g/ha: 500 g ai/ha
Outline: (§1)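 Treatment is preemergence as a directed soil spray after planting, or postemergence at the one- to two-leaf stage, with test chemical in a non-phytotoxic solvent mixture plus surfactant. Plants stay in the greenhouse about 10 d before visual injury scoring on a 0 to 100 scale versus untreated controls.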

[2] = system: barnyardgrass (Echinochloa crus-galli); assay: Test A preemergence; details: Echinochloa crus-galli, pre-emergence, 240 h, preemergence, read-out: Barnyardgrass plant response rating; for pest or weed control at 125 g/ha: 125 g ai/ha, 0 to 100 scale where 0 is no effect and 100 is complete control, approx. 10 d; for pest or weed control at 500 g/ha: 500 g ai/ha, visual injury rating about 10 d after treatment, 0 to 100 scale (0 no effect, 100 complete control)
Outline: as §1

[3] = system: giant foxtail (Setaria faberii); assay: Test A preemergence; details: Setaria faberi, pre-emergence, 240 h, preemergence, read-out: Foxtail, Giant plant response rating; for pest or weed control at 125 g/ha: 125 g ai/ha, approx. 10 d; for pest or weed control at 500 g/ha: 500 g ai/ha
Outline: as §1

[4] = system: pigweed (Amaranthus retroflexus); assay: Test A preemergence; details: Amaranthus retroflexus, pre-emergence, 240 h, preemergence, read-out: Pigweed plant response rating; for pest or weed control at 125 g/ha: 125 g ai/ha, approx. 10 d; for pest or weed control at 500 g/ha: 500 g ai/ha
[5] = system: ragweed (common ragweed, Ambrosia elatior); assay: Test A preemergence; details: Ambrosia artemisiifolia, pre-emergence, 240 h, preemergence, read-out: Ragweed plant response rating; for pest or weed control at 125 g/ha: 125 g ai/ha, approx. 10 d; for pest or weed control at 500 g/ha: 500 g ai/ha
Outline: as §1

[6] = system: ryegrass, Italian (Italian ryegrass, Lolium multiflorum); assay: Test A preemergence; details: Lolium multiflorum, pre-emergence, 240 h, preemergence, read-out: Ryegrass, Italian plant response rating; for pest or weed control at 125 g/ha: 125 g ai/ha, approx. 10 d; for pest or weed control at 500 g/ha: 500 g ai/ha
Outline: as §1

[7] = system: Galium (catchweed bedstraw, Galium aparine); assay: Test A postemergence; details: Galium, post-emergence, 240 h, postemergence, read-out: Galium plant response rating; for pest or weed control at 125 g/ha: 125 g ai/ha, visual injury on 0 to 100 scale (0 no effect, 100 complete control), approx. 10 d; for pest or weed control at 500 g/ha: 500 g ai/ha, 0 to 100 scale, 0 is no effect, 100 is complete control
Outline: as §1

Kochia (Kochia scoparia) [8] = assay: Test A postemergence; details: Bassia scoparia, post-emergence, 240 h, postemergence, read-out: Kochia plant response rating; for pest or weed control at 125 g/ha: 125 g ai/ha, visual injury on 0 to 100 scale (0 no effect, 100 complete control), approx. 10 d; for pest or weed control at 500 g/ha: 500 g ai/ha, 0 to 100 scale, 0 is no effect, 100 is complete control
Outline: as §1

[9] = system: barnyardgrass (Echinochloa crus-galli); assay: Test A postemergence; details: Echinochloa crus-galli, post-emergence, 240 h, postemergence, read-out: Barnyardgrass plant response rating; for pest or weed control at 125 g/ha: 125 g ai/ha, visual injury on 0 to 100 scale (0 no effect, 100 complete control), approx. 10 d; for pest or weed control at 500 g/ha: 500 g ai/ha, 0 to 100 scale, 0 is no effect, 100 is complete control
Outline: as §1

corn (Zea mays) = assay: Test A postemergence; details: Zea mays, post-emergence, 240 h, postemergence, read-out: Corn plant response rating; for plant injury at 125 g/ha: 125 g ai/ha, visual injury on 0 to 100 scale (0 no effect, 100 complete control), approx. 10 d; for plant injury at 500 g/ha: 500 g ai/ha, 0 to 100 scale, 0 is no effect, 100 is complete control
Outline: as §1

[10] = system: giant foxtail (Setaria faberii); assay: Test A postemergence; details: Setaria faberi, post-emergence, 240 h, postemergence, read-out: Foxtail, Giant plant response rating; for pest or weed control at 125 g/ha: 125 g ai/ha, visual injury on 0 to 100 scale (0 no effect, 100 complete control), approx. 10 d; for pest or weed control at 500 g/ha: 500 g ai/ha, 0 to 100 scale, 0 is no effect, 100 is complete control
Outline: as §1

[11] = system: pigweed (Amaranthus retroflexus); assay: Test A postemergence; details: Amaranthus retroflexus, post-emergence, 240 h, postemergence, read-out: Pigweed plant response rating; for pest or weed control at 125 g/ha: 125 g ai/ha, visual injury on 0 to 100 scale (0 no effect, 100 complete control), approx. 10 d; for pest or weed control at 500 g/ha: 500 g ai/ha, 0 to 100 scale, 0 is no effect, 100 is complete control
Outline: as §1

[12] = system: ragweed (common ragweed, Ambrosia elatior); assay: Test A postemergence; details: Ambrosia artemisiifolia, post-emergence, 240 h, postemergence, read-out: Ragweed plant response rating; for pest or weed control at 125 g/ha: 125 g ai/ha, visual injury on 0 to 100 scale (0 no effect, 100 complete control), approx. 10 d; for pest or weed control at 500 g/ha: 500 g ai/ha, 0 to 100 scale, 0 is no effect, 100 is complete control
Outline: as §1

[13] = system: ryegrass, Italian (Italian ryegrass, Lolium multiflorum); assay: Test A postemergence; details: Lolium multiflorum, post-emergence, 240 h, postemergence, read-out: Ryegrass, Italian plant response rating; for pest or weed control at 125 g/ha: 125 g ai/ha, visual injury on 0 to 100 scale (0 no effect, 100 complete control), approx. 10 d; for pest or weed control at 500 g/ha: 500 g ai/ha, 0 to 100 scale, 0 is no effect, 100 is complete control
Outline: as §1

[14] = system: wheat (Triticum aestivum); assay: Test A postemergence; details: Triticum aestivum, post-emergence, 240 h, postemergence, read-out: Wheat plant response rating; for plant injury at 125 g/ha: 125 g ai/ha, visual injury on 0 to 100 scale (0 no effect, 100 complete control), approx. 10 d; for plant injury at 500 g/ha: 500 g ai/ha, 0 to 100 scale, 0 is no effect, 100 is complete control
Outline: as §1

[15] = 0 to 100 scale where 0 is no effect and 100 is complete control
[16] = visual injury rating about 10 d after treatment, 0 to 100 scale (0 no effect, 100 complete control)

| Compound | pest or weed control at 125 g/ha (Kochia (Kochia scoparia) [1]; [15]) [%] | pest or weed control at 125 g/ha [2] [%] | pest or weed control at 500 g/ha [2] [%] | pest or weed control at 125 g/ha [3, 15] [%] | pest or weed control at 125 g/ha [4, 15] [%] | pest or weed control at 125 g/ha [5, 15] [%] | pest or weed control at 125 g/ha [6, 15] [%] | pest or weed control at 125 g/ha [7] [%] | pest or weed control at 500 g/ha [7] [%] | pest or weed control at 125 g/ha (Kochia (Kochia scoparia) [8]) [%] | pest or weed control at 500 g/ha (Kochia (Kochia scoparia) [8]) [%] | pest or weed control at 125 g/ha [9] [%] | pest or weed control at 500 g/ha [9] [%] | plant injury at 125 g/ha (corn (Zea mays)) [%] | plant injury at 500 g/ha (corn (Zea mays)) [%] | pest or weed control at 125 g/ha [10] [%] | pest or weed control at 500 g/ha [10] [%] | pest or weed control at 125 g/ha [11] [%] | pest or weed control at 500 g/ha [11] [%] | pest or weed control at 125 g/ha [12] [%] | other results |
| --- | --- | --- | --- | --- | --- | --- | --- | --- | --- | --- | --- | --- | --- | --- | --- | --- | --- | --- | --- | --- | --- |
| O=C1NC[C@H](c2cc(C(F)F)cs2)[C@H]1C(=O)Nc1ccccc1F [Compound 1116] | 0 | 90 | 90 | 20 | 0 | 0 | 0 | 0 | 40 | 0 | 30 | 30 | 60 | 0 | 0 | 0 | 0 | 0 | 0 | 0 | pest or weed control at 500 g/ha (Kochia (Kochia scoparia) [1]; [15]): 30%; pest or weed control at 500 g/ha [3, 15]: 90%; pest or weed control at 500 g/ha [4, 15]: 20%; pest or weed control at 500 g/ha [5, 15]: 20%; pest or weed control at 500 g/ha [6, 15]: 20%; pest or weed control at 500 g/ha [12]: 0%; pest or weed control at 125 g/ha [13]: 0%; pest or weed control at 500 g/ha [13]: 20%; plant injury at 125 g/ha [14]: 0%; plant injury at 500 g/ha [14]: 20% |
| Cc1cc([C@H]2CN(C)C(=O)[C@@H]2C(=O)Nc2cccc(F)c2F)ccc1Br [Compound 1099] | 60 | 90 | 90 | 90 | 0 | 20 | 50 | 50 | 60 | 30 | 60 | 70 | 80 | 50 | 60 | 80 | 80 | 20 | 50 | 0 | pest or weed control at 500 g/ha (Kochia (Kochia scoparia) [1]; [16]): 70%; pest or weed control at 500 g/ha [3, 16]: 90%; pest or weed control at 500 g/ha [4, 16]: 30%; pest or weed control at 500 g/ha [5, 16]: 60%; pest or weed control at 500 g/ha [6, 16]: 70%; pest or weed control at 500 g/ha [12]: 40%; pest or weed control at 125 g/ha [13]: 40%; pest or weed control at 500 g/ha [13]: 60%; plant injury at 125 g/ha [14]: 20%; plant injury at 500 g/ha [14]: 50% |
